Test results published in patent publication US4362718A, “Agent for curing peripheral circulation insufficiency” (Yamanouchi Pharmaceutical Co., Ltd., priority 1979, dated 1982).
Like-named read-outs stand apart in the source and are kept apart here.

Columns and labels:
red blood corpuscles [1] = experiment: Fine opening passability of red blood corpuscles (nitrocellulose membrane filter, 3.0 μm); type: cell-based, human; conditions: 37° C., 30 minutes, 3.0 μm filter, 80 mmHg/cm^2
Experimental: (§1) (1) One part by volume of human blood was mixed with 1 part by volume of a preservative solution (acid-citrate-dextrose solution) and preserved at 4° C. Just before using, it was washed 4 times with about 8 times by volume of a saline solution (2,000 rotations/minute, for 3 minutes) and a 2% saline floating solution of red blood corpuscles was prepared.
(§2) (2) A solution prepared by dissolving α1 -acid glycoprotein or a comparative substance shown in FIG. 1 in a saline solution was mixed with the same amount of the saline floating solution of red blood corpuscles, and the mixture was moderately shaked for 30 minutes at 37° C. 1 ml of the mixture was taken out and filtered by means of a nitrocellulose membrane filter (produced by Saltrius Co., diameter: 13 mm, diameter of fine openings: 3.0 μm) at 37° C. with pressing under 80 mmHg/cm^2. 0.5 ml of the filtrate was taken out and subjected to light centrifugal separation (1,500 rotations/minute, for 2 minutes). To the precipitate was added 5 ml of deionized water to cause hemolysis at a low tonicity, and a ratio of red blood corpuscles passing through the filter was calculated from the absorbance (420 nm) thereof. Further, percent hemolysis caused during the operation was calculated from the absorbance of the supernatant fluid of the filtrate.

[2] = tested on: red blood corpuscles through fine blood vessels; experiment: Passability of red blood corpuscles through vital fine blood vessels (exposed rabbit mesentery, reduced blood pressure); type: in vivo
Text: A rabbit was subjected to laparotomy under urethane anesthesia to expose the mesentery and the passability of the red blood corpuscles through fine blood vessels was observed by means of a stereomicroscope.

Rat = experiment: Acute toxicity, rat; type: in vivo
Mouse = experiment: Acute toxicity, mouse; type: in vivo
HeLaS3 = experiment: Toxicity to cultivated cells, HeLaS3; type: cell-based
[3] = tested on: Human fetal lung fiber cell; experiment: Toxicity to cultivated cells, human fetal lung fiber cell; type: cell-based
[4] = tested on: EB virus transform lymphoblast P3HR-1; experiment: Toxicity to cultivated cells, P3HR-1; type: cell-based
red blood corpuscles [5] = tested on: red blood corpuscles
Experimental: as §1, §2

[6] = 100 μg-1 mg/kg, arterial blood pressure 40-60 mmHg/cm^2

| Substance | passage of red blood corpuscles through the filter (red blood corpuscles [1]; 0.05% solution, saline control did not pass at all) | impilation of corpuscles and separation of the corpuscle component from the serum [2, 6] | movement of red blood corpuscles [2, 6] | passability of red blood corpuscles through fine blood vessels under reduced blood pressure ([2]; continuously into local dominating artery or into a vein, 100 μg-1 mg/kg, blood pressure reduced by blood-letting or pentobarbital) | LD50 (Rat; intraperitoneally) | LD50 (Rat; intravenously) | LD50 (Rat; subcutaneously) | LD50 (Mouse; intraperitoneally) | LD50 (Mouse; intravenously) | LD50 (Mouse; subcutaneously) | Toxicity (50% Inhibition of propagation) (HeLaS3) | Toxicity (50% Inhibition of propagation) [3] | Toxicity (50% Inhibition of propagation) [4] | percent hemolysis in case of passing through fine openings (red blood corpuscles [5]; 0.05% solution, saline alone as high as 20%) | passage of red blood corpuscles through the filter (red blood corpuscles [1]; 0.1% solution, compared with α1 -acid glycoprotein) | stagnation of the blood flow and stopping of the blood corpuscles ([2]; in case of using dextran sulfate, reduced blood pressure) | percent hemolysis in case of passing through fine openings (red blood corpuscles [5]; human, red blood cells) |
| --- | --- | --- | --- | --- | --- | --- | --- | --- | --- | --- | --- | --- | --- | --- | --- | --- | --- |
| α1 -acid glycoprotein: active ingredient of the present invention; substance known already, produced by the process described in Unexamined patent publication Sho 53-37187 | the red blood corpuscles passed through the filter with hardly causing hemolysis | impilation of corpuscles and separation of the corpuscle component from the serum were not observed | the red blood corpuscles moved in the normal direction though the movement was slow | the passability of red blood corpuscles was good | > 1,000 mg/kg | > 1,000 mg/kg | > 1,000 mg/kg | > 1,000 mg/kg | > 1,000 mg/kg | > 1,000 mg/kg | > 100 µg/mL | > 100 µg/mL | > 100 µg/mL | 5% |  |  |  |
| dextran sulfate [reference compound] |  |  |  |  |  |  |  |  |  |  |  |  |  |  | passage of the red blood corpuscles was observed too, but the effect was small as compared with the case of α1 -acid glycoprotein | such stagnation of the blood flow and stopping of the blood corpuscles were not observed | 25 to 30% |
